Experiment [1] deals with DR3. Briefly: DR3. The source says: (§1) Table printed on a drawing sheet, Figure 2
Where the first naming reader finds the target: head: DR3

The test system of experiment [2] is DRB4. Briefly: DRB4.
Text: as §1
Where the first naming reader finds the target: head: DRB4

Experiment [3] has as its system DR4. The experiment is described as follows: DR4.
Experiment [4] has as its system DRB5. Briefly: DRB5.
Experiment [5] relates to DR11. The experiment is described as follows: DR11.
Text: as §1
Where the first naming reader finds the target: head: DR11

Experiment [6] has as its target T1, HLA-DR1 (DRB1*0101) (Homo sapiens, UniProt P01903+P01911, A100R/D57E/F55L/F60I/F76Y/I96L/L162R/M171V/P40L/Q125E/R42F/V115G/Y59C).
T1 construct: endogenous in cells; host or cells: homozygous EBV-transformed human B lymphocyte lines; immunopurified with antibody L243
The experiment is described as follows: biochemical. It counts as binding. The settings on record: for IC50: DRB1*0101.

Experiment [7] concerns DP402. The experiment is described as follows: DP402.
Experiment [8] relates to DR15. Briefly: DR15.
Experiment [9] deals with DRB3. Briefly: DRB3.
Experiment [10] has as its target HLA-DR7 (DRB1*0701) (Homo sapiens, UniProt P01903+P01911, A100R/A102G/A103Q/D57E/D86V/E43K/F76Y/K127E/L162R/M171V/P40G/Q125H/Q99D/R33Q/R42Y/R54Q/S133A/S66F/T210M/V115G/Y107V/Y59L/Y89S). Briefly: biochemical. It counts as binding. The conditions noted are these: read-out: binds with good affinity to DR7.
Experiment [11] has as its system T lymphocytes derived from PBMCs from patients chronically infected with HCV. Format: cell-based, human.
Experiment [12] deals with HLA-DR11 (DRB1*1101) (Homo sapiens, UniProt P01903+P01911, A100R/A169T/A87E/I96F/K41T/L162R/M171V/P40S/Q125H/Q178H/Q39Y/Q99D/R42S/S66Y/T262R/V115G/W38E). The experiment is described as follows: biochemical. Format: binding. The conditions noted are these: read-out: binds with good affinity to DR11.
Experiment [13] concerns the target T2, HLA-DRB5 (DRB5*0101) (Homo sapiens, UniProt P01903+Q30154).
T2 construct: endogenous in cells; host or cells: homozygous EBV-transformed human B lymphocyte lines; immunopurified with antibody L243
The experiment is described as follows: biochemical. Format: binding. The settings on record: read-out: binds with good affinity to DRB5.

Experiment [14] addresses T3, HLA-DRB4 (DRB4*0101) (Homo sapiens, UniProt P01903+P13762, G164S).
T3 construct: endogenous in cells; host or cells: homozygous EBV-transformed human B lymphocyte lines; immunopurified with antibody L243
Briefly: biochemical. It counts as binding. The settings on record: read-out: binds with good affinity to DRB4.

Experiment [15] concerns the target HLA-DR13 (DRB1*1301) (Homo sapiens, UniProt P01903+P01911, A100E/A169T/K41T/L162R/M171V/P40S/Q125H/Q178H/Q39Y/Q99D/R42S/S66N/T262R/W38E/Y61H). Briefly: biochemical. It counts as binding.
Experiment [16] deals with DP401. The experiment is described as follows: DP401.
Experiment [17] deals with DR1. The experiment is described as follows: DR1.
Experiment [18] deals with T4, HLA-DR4 (DRB1*0401) (Homo sapiens, UniProt P01903+P01911, A100K/A169T/F76Y/I96L/K127E/L162R/M171V/N62H/P40V/Q125Y/R42H/S133A/S149N/S66Y/V115G/V209L/W38E).
T4 construct: endogenous in cells; host or cells: homozygous EBV-transformed human B lymphocyte lines; immunopurified with antibody L243
The experiment is described as follows: biochemical. The conditions noted are these: read-out: binds with good affinity to DR4. Format: binding.

The mark [19] stands for this setting: patient 067, supernatant 48 h, —: not detected.
Setting [20] is: patient 078, supernatant 48 h, —: not detected.
Setting [21] is: patient 093, supernatant 48 h, —: not detected.
The mark [22] stands for this setting: patient 659, supernatant 48 h, —: not detected.
[23] abbreviates: patient 815, supernatant 48 h, —: not detected.
The mark [24] stands for this setting: read-out: binds with good affinity to DR1.

Read-outs that look alike come from different tables or passages of the source. Marks after values point to notes of the source that are not given here. Residues, ends and D or L forms follow the SMILES beside them.

HLA-DR11 (DRB1*1101), sequence (P01903 26-254 limits assumed, other chains not shown): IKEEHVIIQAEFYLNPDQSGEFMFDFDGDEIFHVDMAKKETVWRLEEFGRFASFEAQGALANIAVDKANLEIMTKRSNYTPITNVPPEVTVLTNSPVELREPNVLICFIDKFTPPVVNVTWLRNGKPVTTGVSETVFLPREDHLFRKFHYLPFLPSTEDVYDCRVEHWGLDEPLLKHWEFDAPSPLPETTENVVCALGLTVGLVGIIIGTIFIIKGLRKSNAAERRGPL

Turning to `CC(C)C[C@H](NC(=O)[C@H](Cc1c[nH]c2ccccc12)NC(=O)CNC(=O)[C@H](C)NC(=O)[C@@H](N)Cc1c[nH]c2ccccc12)C(=O)N[C@@H](CC(C)C)C(=O)N[C@@H](CO)C(=O)N1CCC[C@H]1C(=O)N[C@@H](CCCNC(=N)N)C(=O)NCC(=O)N[C@@H](CO)C(=O)N[C@@H](CCCNC(=N)N)C(=O)N1CCC[C@H]1C(=O)N[C@@H](CO)C(=O)N[C@@H](Cc1c[nH]c2ccccc12)C(=O)O` [3C 93-107] (H-WAGWLLSPRGSRPSW-OH; N-terminus and C-terminus assumed), the IC50 was 50000 nM in experiment [1]; 5000 nM in [2]; 60000 nM in experiment [3]; 2570 nM in [4]; 87 nM in [5]; 6330 nM in experiment [6] (competition with biotinylated tracer HA 306-318, read-out: IC50, binding to HLA-DR1). Besides, the IC50 in experiment [7] was greater than 100000 nM; in experiment [8] it was 27500 nM; in experiment [9], greater than 100000 nM. The “affinity for HLA-DR1 (in words)” value in experiment [6] (legend of FIG. 4) was “low affinity”.
Regarding `CC[C@H](C)[C@H](NC(=O)[C@H](CC(C)C)NC(=O)[C@H](Cc1c[nH]cn1)NC(=O)[C@H](CCCNC(=N)N)NC(=O)CNC(=O)CNC(=O)[C@H](CCCCN)NC(=O)[C@@H](NC(=O)[C@@H](NC(=O)[C@H](CCC(=O)O)NC(=O)[C@H](CC(C)C)NC(=O)[C@@H]1CCCN1C(=O)[C@@H](NC(=O)[C@H](C)NC(=O)[C@H](CCCCN)NC(=O)CN)[C@@H](C)CC)C(C)C)[C@@H](C)CC)C(=O)N[C@@H](Cc1ccccc1)C(=O)N[C@@H](CS)C(=O)N[C@@H](Cc1c[nH]cn1)C(=O)N[C@@H](CO)C(=O)N[C@@H](CCCCN)C(=O)N[C@@H](CCCCN)C(=O)N[C@@H](CCCCN)C(=O)N[C@@H](C)C(=O)N[C@@H](CC(=O)O)C(=O)N[C@@H](CCC(=O)O)C(=O)N[C@@H](CC(C)C)C(=O)O` [23N 1377-1403] (H-GKAIPLEVIKGGRHLIFCHSKKKADEL-OH; N-terminus and C-terminus assumed), the IC50 in [10] was less than 1000 nM; in experiment [2] it was 900 nM; in experiment [3], 3000 nM; in [4], 3 nM; in experiment [12], less than 1000 nM; in [13] it was less than 1000 nM. The IC50 in [6] (setting [24]) is less than 1000 nM; in experiment [14], less than 1000 nM; in experiment [15] (read-out: binds with good affinity to DR13) it was less than 1000 nM; in [9] it was greater than 10000 nM. The figures for the IL2 entry in experiment [11] (setting [19]) and in experiment [11] (setting [23]) were “— 51 pg/ml” and 58 pg/mL, respectively. In addition, the IL10 in [11] (setting [20]) was 54 pg/mL; in experiment [11] (setting [22]) it was 29 pg/mL; in experiment [11] (patient 815, assay at 24 h instead of 48 h), 63* — pg/ml. The same molecule registered an IFNγ in [11] (setting [21]) of 57 pg/mL. Further, in experiment [11] (setting [21]), the IL4 was 23 pg/mL.
As for `CC[C@H](C)[C@H](NC(=O)[C@H](Cc1ccccc1)NC(=O)[C@H](CC(=O)O)NC(=O)[C@@H](NC(=O)[C@H](C)NC(=O)[C@H](CCCCN)NC(=O)[C@H](C)N)C(C)C)C(=O)N1CCC[C@H]1C(=O)N[C@H](C(=O)N[C@@H](CCC(=O)O)C(=O)N[C@@H](CC(N)=O)C(=O)N[C@@H](CC(C)C)C(=O)N[C@@H](CCC(=O)O)C(=O)N[C@H](C(=O)N[C@H](C(=O)N[C@@H](CCSC)C(=O)N[C@@H](CCCNC(=N)N)C(=O)N[C@@H](CO)C(=O)N1CCC[C@H]1C(=O)N[C@H](C(=O)N[C@@H](Cc1ccccc1)C(=O)N[C@H](C(=O)N[C@@H](CC(=O)O)C(=O)O)[C@@H](C)O)C(C)C)[C@@H](C)O)[C@@H](C)O)C(C)C` [16N 1190-1212], the IC50 in experiment [16] stood at 4110 nM; in experiment [7], 1440 nM; in experiment [8], 700 nM; in experiment [17] it was 600 nM. Further, the IL2 result in experiment [11] (setting [19]) was “— 85 pg/ml”; in experiment [11] (setting [20]) it was “— 17 pg/ml”; in experiment [11] (setting [21]), 5 pg/mL; in [11] (setting [22]), 18 pg/mL; in experiment [11] (setting [23]), 72 pg/mL. Besides, the IL10 in [11] (setting [23]) amounted to 123 pg/mL.
On to `CC(C)C[C@H](NC(=O)[C@H](Cc1c[nH]cn1)NC(=O)[C@H](C)NC(=O)[C@@H](NC(=O)[C@H](CCC(N)=O)NC(=O)[C@H](Cc1ccccc1)NC(=O)[C@H](CO)NC(=O)[C@H](CCC(N)=O)NC(=O)[C@@H]1CCCN1C(=O)[C@@H](NC(=O)[C@@H](NC(=O)[C@@H]1CCCN1C(=O)[C@@H]1CCCN1C(=O)[C@H](CO)NC(=O)[C@H](CO)NC(=O)[C@H](CC(N)=O)NC(=O)[C@H](CC(=O)O)NC(=O)[C@@H](NC(=O)[C@H](Cc1ccccc1)NC(=O)[C@@H](NC(=O)[C@@H]1CCCN1C(=O)[C@H](CO)NC(=O)[C@@H](N)CCCNC(=N)N)C(C)C)[C@@H](C)O)C(C)C)C(C)C)C(C)C)C(=O)N[C@@H](Cc1c[nH]cn1)C(=O)N[C@@H](C)C(=O)N1CCC[C@H]1C(=O)N[C@H](C(=O)NCC(=O)N[C@@H](CO)C(=O)NCC(=O)N[C@@H](CCCCN)C(=O)N[C@@H](CO)C(=O)N[C@H](C(=O)N[C@@H](CCCCN)C(=O)O)[C@@H](C)O)[C@@H](C)O` [17N 1206-1239], for which the IC50 in experiment [10] is less than 1000 nM; in experiment [16], 64800 nM; in experiment [2], 3880 nM; in [3], 425 nM; in experiment [5], 550 nM; in experiment [12] it was less than 1000 nM. Moreover, the IC50 in experiment [13] is less than 1000 nM; in [6] (setting [24]), less than 1000 nM; in [7], 14600 nM; in experiment [18], less than 1000 nM; in experiment [8], 10000 nM; in experiment [9], 5250 nM. Besides, the IC50 in [17] turned out to be 55 nM.
Regarding `CC[C@H](C)[C@H](NC(=O)[C@H](Cc1c[nH]cn1)NC(=O)[C@H](CCCNC(=N)N)NC(=O)[C@@H](NC(=O)[C@@H](NC(=O)[C@H](CC(C)C)NC(=O)[C@H](CCCNC(=N)N)NC(=O)[C@@H](NC(=O)[C@H](CCCNC(=N)N)NC(=O)[C@H](CCC(=O)O)NC(=O)[C@@H](N)[C@@H](C)O)C(C)C)C(C)C)[C@@H](C)O)C(=O)N[C@@H](Cc1ccc(O)cc1)C(=O)N[C@@H](CC(N)=O)C(=O)N[C@@H](CCCNC(=N)N)C(=O)N[C@@H](CCC(=O)O)C(=O)N[C@@H](CCC(=O)O)C(=O)O` [B1 21-36, reference compound] (H-TERVRLVTRHIYNREE-OH; N-terminus and C-terminus assumed), the IC50 in experiment [15] (tracer B1 21-36, read-out: IC50, binding to HLA-DR13) turned out to be 330 nM.

The values above are taken from patent US20060110401A1, “Mixture of peptides from c and ns3 proteins of the hepatitis c virus and applications thereof” (priority 2002, published 2006).
